Laboratory results taken from ChEMBL document CHEMBL5357057, “Pleosmaranes A-R, Isopimarane and 20-nor Isopimarane Diterpenoids with Anti-inflammatory Activities from the Mangrove Endophytic Fungus Pleosporales sp. HNQQJ-1” (J Nat Prod, 2024).

Assays:
RAW264.7 [1] = assay: Anti-inflammatory activity in mouse RAW264.7 cells assessed as inhibition of LPS-induced NO production incubated for 24 hrs by Griess reagent based analysis; type: functional, cell-based; conditions: RAW264.7, 24 h
RAW264.7 [2] = assay: Cytotoxicity against mouse RAW264.7 cells assessed as reduction in cell viability at 5 to 50 uM measured for 24 hrs by MTT assay; type: toxicity, cell-based; conditions: raw264.7, 24 h, dose 5-50 µM

Row | SMILES | IC50 (RAW264.7 [1]) [µM] | Activity (RAW264.7 [2])
1 | C=C[C@@]1(C)CCC2=C([C@H]3O[C@@H](OC)[C@@]24CCCC(C)(C)[C@@H]4[C@H]3OC(C)=O)[C@H]1O | 37 | Non-Toxic
2 | C=C[C@@]1(C)CCC2=C(C1)C(=O)C[C@H]1C(C)(C)[C@H](O)C[C@@H](O)[C@]21C | > 50 | Non-Toxic
3 | C=C[C@@]1(C)CCc2c3c(cc(O)c2[C@@H]1OC)C(C)(C)CCC3 | 30 | Non-Toxic
4 | C=C[C@@]1(C)CCc2c3c(cc(O)c2[C@@H]1OC)[C@@](C)(CO)CCC3 | 42 | Non-Toxic
5 | C=C[C@@]1(C)CCc2c3c(cc(O)c2[C@H]1O)C(C)(C)CCC3 | > 50 | Non-Toxic
6 | C=C[C@]1(C)C=C2C(=O)C[C@H]3C(C)(C)CC[C@@H](OC(C)=O)[C@]3(C)[C@@]2(O)CC1 | 33 | Non-Toxic
7 | C=C[C@]1(C)C=C2[C@@H](O)C[C@H]3C(C)(C)CC[C@@H](OC(C)=O)[C@]3(C)[C@@]2(O)CC1 | 25 | Non-Toxic
8 | C=C[C@]1(C)C=C2[C@](O)(CC1)[C@@]13CCCC(C)(C)[C@@H]1[C@@H](OC(C)=O)[C@]2(O)OC3 | 30 | Non-Toxic
9 | C=C[C@]1(C)C=C2[C@H]3O[C@@H](O)[C@@]4(CCCC(C)(C)[C@@H]4[C@H]3OC(C)=O)[C@@]2(O)CC1 | 33 | Non-Toxic
10 | C=C[C@]1(C)C=C2[C@@H](OC(C)=O)[C@H]3OC(=O)[C@@]4(CCCC(C)(C)[C@H]34)[C@@]2(O)CC1 | 35 | Non-Toxic
11 | C=C[C@@]1(C)CCc2c3c(cc(O)c2C1=O)[C@](C)(CO)CCC3 | 19 | Non-Toxic
12 | C=C[C@@]1(C)CCc2c3c(cc(O)c2[C@H]1OC)C(C)(C)CCC3 | 37 | Non-Toxic
13 | C=C[C@@]1(C)CCc2c3c(cc(O)c2[C@@H]1O)C(C)(C)CCC3 | 40 | Non-Toxic
14 | C=C[C@@]1(C)CCc2c3c(cc(O)c2[C@H]1O)[C@](C)(CO)CCC3 | > 50 | Non-Toxic
15 | C=C[C@@]1(C)CCc2c(c(O)cc3c2CCCC3(C)C)C1 | > 50 | Non-Toxic
16 | C=C[C@]1(C)C=C2C(=O)C[C@H]3C(C)(C)CCC[C@]3(C(=O)O)[C@@]2(O)CC1 [SPHAEROPSIDIN C] | 31 | Non-Toxic
17 | C=C[C@]1(C)C=C2[C@@H](O)[C@H](O)[C@H]3C(C)(C)CC[C@@H](OC(C)=O)[C@]3(C)[C@@]2(O)CC1 | 35 | Non-Toxic
18 | C=C[C@@]1(C)CC[C@@]2(O)C(=C[C@H](O)[C@H]3C(C)(C)CC[C@@H](OC(C)=O)[C@@]32C)[C@H]1O | > 50 | Non-Toxic
19 | C=C[C@@]1(C)C[C@H](O)c2c3c(cc(O)c2[C@H]1OC)C(C)(C)CCC3 | 38 | Non-Toxic
20 | C=C[C@@]1(C)CCc2c3c(cc(O)c2[C@@H]1O)[C@@](C)(CO)CCC3 | > 50 | Non-Toxic
21 | C=C[C@@]1(C)CCc2c3c(cc(O)c2[C@@H]1OC)C(C)(C)[C@@H](O)CC3 | 35 | Non-Toxic
22 | C=C[C@@]1(C)CCc2c3c(cc(O)c2[C@H]1OC)[C@](C)(CO)CCC3 | 42 | Non-Toxic
